The values that follow are results of earlier work, collected in article PMC11599114 (Viruses, 2024).

The subject of this data set is influenza A virus(oseltamivir-resistant strain). Also noted: method as in ref 30447229. As to conditions: MDCK.

Turning to KFFRKKSVKK [DRAVPe01822], the EC50 – broadly, the midpoint of the concentration-response curve – is 18.9 ± 7 µM.
